Experimental data reported in patent US20080039629A1, “Benzothniazole compositions and their use as ubiquition ligation inhibitors” (RIGEL PHARMACEUTICALS, INC., priority 2003, published 2008).

Target: T1, E1 and His-E2 Ubch10 (Homo sapiens, UniProt P22314)
T1 construct: host or cells: E. coli (His-Ubch10); Sf9 insect cells (E1)
T1 sequence (P22314 1-1058): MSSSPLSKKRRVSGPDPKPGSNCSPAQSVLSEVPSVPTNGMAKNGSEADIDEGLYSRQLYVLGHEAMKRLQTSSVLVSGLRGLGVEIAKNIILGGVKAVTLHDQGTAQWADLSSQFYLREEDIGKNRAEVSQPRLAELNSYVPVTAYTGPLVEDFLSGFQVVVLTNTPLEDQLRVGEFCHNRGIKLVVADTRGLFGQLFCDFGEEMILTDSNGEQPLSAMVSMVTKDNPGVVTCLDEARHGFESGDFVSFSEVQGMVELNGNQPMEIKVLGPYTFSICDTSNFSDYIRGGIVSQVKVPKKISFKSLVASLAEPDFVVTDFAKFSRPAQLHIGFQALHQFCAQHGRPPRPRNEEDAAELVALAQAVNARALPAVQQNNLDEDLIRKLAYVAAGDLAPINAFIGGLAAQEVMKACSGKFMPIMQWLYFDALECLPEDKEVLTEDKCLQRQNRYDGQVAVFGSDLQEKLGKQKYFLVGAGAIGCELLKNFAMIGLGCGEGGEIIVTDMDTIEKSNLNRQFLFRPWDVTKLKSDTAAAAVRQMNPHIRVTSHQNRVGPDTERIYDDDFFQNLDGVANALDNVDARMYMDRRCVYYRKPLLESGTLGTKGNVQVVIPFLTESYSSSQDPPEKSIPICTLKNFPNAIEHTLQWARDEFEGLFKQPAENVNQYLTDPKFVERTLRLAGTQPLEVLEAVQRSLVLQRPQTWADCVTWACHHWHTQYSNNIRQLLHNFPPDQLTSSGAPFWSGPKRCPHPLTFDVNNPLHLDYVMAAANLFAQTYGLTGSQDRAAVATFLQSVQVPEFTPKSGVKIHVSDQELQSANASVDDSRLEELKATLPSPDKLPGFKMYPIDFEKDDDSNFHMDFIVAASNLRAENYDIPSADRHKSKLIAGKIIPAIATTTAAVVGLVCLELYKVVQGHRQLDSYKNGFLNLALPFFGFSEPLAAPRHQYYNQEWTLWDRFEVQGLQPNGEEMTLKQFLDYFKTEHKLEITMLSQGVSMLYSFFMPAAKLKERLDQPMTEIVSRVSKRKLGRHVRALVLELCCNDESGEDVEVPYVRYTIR
Assay: E1 to E2 transfer assay, His-E2 Ubch10, 1.0 μM ATP (low ATP)
Format: biochemical
Conditions: Table 5, ATP inhibition properties; inhibition measured using IC50 values
Procedure, shortened: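 His-Ubch10 (20 ng/well), E1 (10 ng/well) and Flag-ubiquitin (100 ng) reacted 1 h at room temperature on nickel plates in 62.5 mM Tris pH 7.5, 0.75 mM DTT, 1.0 μM ATP with inhibitor. E2-ubiquitin complex detected by anti-Flag/HRP luminescence; IC50 determined.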

| Compound | UBC10 |
| --- | --- |
| COc1ccc2nc(NC(=O)c3ccc(OC(C)=O)cc3)sc2c1 [Compound 27, 4-((6-methoxybenzo[d]thiazol-2-yl)carbamoyl)phenyl acetate] | ++ (++ indicates inhibition at 50 μM or or less) |
| O=C(O)c1ccc2c(c1)C(=O)N(c1nc3ccccc3s1)C2=O [Compound 181, 2-(benzo[d]thiazol-2-yl)-1,3-dioxosioindoline-5-carboxylic acid] | −− (−− indicates marginal or no inhibition detected with this assay) |
| COc1ccc2nc(NC(=O)c3cccc4ccccc34)sc2c1 [Compound 55, N-(6-methoxybenzo[d]thiazol-2-yl)-1-naphthamide] | −− (−− indicates marginal or no inhibition detected with this assay) |
| Nc1ccc(C(=O)Nc2nc3ccccc3s2)cc1 [Compound 86, 4-amino-N-(benzo[d]thiazol-2-yl)benzamide] | −− (−− indicates marginal or no inhibition detected with this assay) |
| COc1ccc2nc(NC(=O)c3cccs3)sc2c1 [Compound 49, N-(6-methoxybenzo[d]thiazol-2-yl)thiophene-2-carboxamide] | ++ (++ indicates inhibition at 50 μM or or less) |
| COc1ccc2nc(NC(=O)Nc3ccc(C#N)cc3)sc2c1 [Compound 137, 1-(4-cyanophenyl)-3-(6-methoxybenzo[d]thiazol-2-yl)urea] | −− (−− indicates marginal or no inhibition detected with this assay) |
| CCOC(=O)c1ccc(NC(=O)Nc2nc3ccc(OCC)cc3s2)cc1 [Compound 136, ethyl 4-(3-(6-ethoxybenzo[d]thiazol-2-yl)ureido)benzoate] | −− (−− indicates marginal or no inhibition detected with this assay) |
| Cc1ccc(C(=O)Nc2nc3ccc(S(N)(=O)=O)cc3s2)cc1 [Compound 73, N-[6-(aminosulfonyl)-1,3-benzothiazol-2-yl]-4-methylbenzamide] | −− (−− indicates marginal or no inhibition detected with this assay) |
| COc1ccc2nc(NC(=O)c3ccc(C)c([N+](=O)[O-])c3)sc2c1 [Compound 23, N-(6-methoxybenzo[d]thiazol-2-yl)-4-methyl-3-nitrobenzamide] | −− (−− indicates marginal or no inhibition detected with this assay) |
| CCCc1ccc(C(=O)Nc2nc3ccccc3s2)cc1 [Compound 170, N-(benzo[d]thiazol-2-yl)-4-propylbenzamide] | −− (−− indicates marginal or no inhibition detected with this assay) |

Target: T2, E1 and His-E2 Ubch10 (UBC10) (Homo sapiens, UniProt P22314)
T2 construct: host or cells: E. coli (His-Ubch10); Sf9 insect cells (E1)
T2 sequence (P22314 1-1058): T1 sequence (P22314 1-1058)
Assay: ATP competitive assay, 200 μM ATP (high ATP)
Format: biochemical
Conditions: conclusion from UBC10 inhibition at 1 μM versus 200 μM ATP
Protocol: The attachment of a ubiquitin moiety to the E2 conjugating agent was assayed using Flag-ubiquitin that was purified from E. coli, E2 Ubch10 that was purified as a His-Ubch10 from E. coli, and E1 that was purified from Sf9 insect cells (Affiniti Research Products, Exeter, U.K.). The wells of a Nickel-substrate 96-well plate (Pierce Chemical) were blocked with 100 μl of 1% casein/phosphate buffered saline (PBS) for 1 hour at room temperature. The blocked Nickel-substrate plate was then washed three times with 200 μl of PBST (0.1% Tween-20 in PBS). […] The final reaction solution volume was fixed to 80 μl with Millipore-filtered water. To this was added the following: a ubiquitin agent inhibitor in 10 μl of DMSO, 10 μl of E1 and His-E2 Ubch10 in 20 mM Tris buffer, pH 7.5, and 5% glycerol so that there was 10 ng/well of E1 and 20 ng/well of His-E2 Ubch10. […]
After 1 hour, the wells were washed three times with 200 μl of PBST and the amount of E2-ubiquitin complex was measured. […] The luminescence of each well was then measured using a […] to calculate the amount of E2-ubiquitin complex. […]
The table below illustrates the ATP competitive inhibition properties of the pharmaceutical compositions of the invention comprising the compounds listed in the table using the ATP competitive assay described above. Inhibition was measured using IC50 values.

| Compound | Results |
| --- | --- |
| COc1ccc2nc(NC(=O)c3ccc(C)cc3)sc2c1 [Compound 3, N-(6-methoxy-1,3-benzothiazoi-2-yl)-4-methylbenzamide] | ATP competitve |
| COc1ccc2sc(NC(=O)c3ccc4c(c3)OCCO4)nc2c1 [Compound 14, N-(5-methoxy-1,3-benzothiazol-2-yl)-2,3-dihydro-1,4-benzodioxine-6-carboxamide] | ATP competitve |
